# Test results as given in ChEMBL document CHEMBL2390902, “Discovery of 1-(1,3,5-triazin-2-yl)piperidine-4-carboxamides as inhibitors of soluble epoxide hydrolase” (Bioorg Med Chem Lett, 2013).
# What was measured:
# [1] = Plasma clearance in rat at 1 mg/kg, iv; format: ADME, organism-based; design: dose 1 mg/kg, route intravenous
# [2] = Cmax in rat at 2 mg/kg, po; format: ADME, organism-based; design: dose 2 mg/kg, route oral; conditions: in vivo
# Homo sapiens [3] = species on record: Homo sapiens; assay: Inhibition of human delta2 opioid receptor at 1 uM relative to control
# [4] = molecular target: 5-hydroxytryptamine receptor 3A (Homo sapiens) (UniProt P46098); assay: Inhibition of human 5-HT3 receptor at 1 uM relative to control
# Sequence of 5-hydroxytryptamine receptor 3A (Homo sapiens) (P46098 whole entry): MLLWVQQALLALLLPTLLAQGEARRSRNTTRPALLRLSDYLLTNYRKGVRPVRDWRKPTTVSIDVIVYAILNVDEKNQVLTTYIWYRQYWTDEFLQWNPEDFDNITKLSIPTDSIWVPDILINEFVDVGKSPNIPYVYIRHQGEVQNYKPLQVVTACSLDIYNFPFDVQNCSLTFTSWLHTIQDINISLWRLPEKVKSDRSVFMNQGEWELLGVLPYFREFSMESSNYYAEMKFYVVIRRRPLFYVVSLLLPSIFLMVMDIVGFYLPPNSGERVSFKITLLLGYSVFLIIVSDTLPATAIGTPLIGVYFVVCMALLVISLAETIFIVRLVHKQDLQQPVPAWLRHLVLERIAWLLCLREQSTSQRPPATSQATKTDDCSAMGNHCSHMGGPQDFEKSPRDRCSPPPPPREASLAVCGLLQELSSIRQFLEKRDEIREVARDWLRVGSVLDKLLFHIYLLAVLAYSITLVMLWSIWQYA
# [5] = molecular target: Adenosine receptor A1 (Homo sapiens) (UniProt P30542); assay: Inhibition of human adenosine A1 receptor at 1 uM relative to control
# Sequence of Adenosine receptor A1 (Homo sapiens) (P30542 whole entry): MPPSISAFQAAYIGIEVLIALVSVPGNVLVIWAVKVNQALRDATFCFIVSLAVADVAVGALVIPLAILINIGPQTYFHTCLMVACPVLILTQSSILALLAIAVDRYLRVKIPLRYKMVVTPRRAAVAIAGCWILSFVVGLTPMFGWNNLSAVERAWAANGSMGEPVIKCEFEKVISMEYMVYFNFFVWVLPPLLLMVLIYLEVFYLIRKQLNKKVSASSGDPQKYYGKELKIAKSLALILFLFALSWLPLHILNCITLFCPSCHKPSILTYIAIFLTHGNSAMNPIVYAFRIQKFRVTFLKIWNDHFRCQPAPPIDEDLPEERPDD
# [6] = molecular target: Melatonin receptor type 1A (Homo sapiens) (UniProt P48039); assay: Inhibition of human MT1 receptor at 1 uM relative to control
# Sequence of Melatonin receptor type 1A (Homo sapiens) (P48039 whole entry): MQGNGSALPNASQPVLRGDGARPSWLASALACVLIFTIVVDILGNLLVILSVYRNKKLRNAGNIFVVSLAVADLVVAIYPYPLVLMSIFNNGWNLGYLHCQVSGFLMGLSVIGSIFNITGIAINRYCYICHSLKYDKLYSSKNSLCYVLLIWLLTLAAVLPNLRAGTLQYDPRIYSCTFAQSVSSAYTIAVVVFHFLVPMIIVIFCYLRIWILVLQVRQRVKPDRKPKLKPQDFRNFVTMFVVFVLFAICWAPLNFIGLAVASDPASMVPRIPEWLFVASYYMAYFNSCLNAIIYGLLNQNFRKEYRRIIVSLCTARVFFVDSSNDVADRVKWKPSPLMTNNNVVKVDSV
# [7] = molecular target: Neurotensin receptor type 1 (Homo sapiens) (UniProt P30989); assay: Inhibition of human NTS1 receptor at 1 uM relative to control
# Sequence of Neurotensin receptor type 1 (Homo sapiens) (P30989 whole entry): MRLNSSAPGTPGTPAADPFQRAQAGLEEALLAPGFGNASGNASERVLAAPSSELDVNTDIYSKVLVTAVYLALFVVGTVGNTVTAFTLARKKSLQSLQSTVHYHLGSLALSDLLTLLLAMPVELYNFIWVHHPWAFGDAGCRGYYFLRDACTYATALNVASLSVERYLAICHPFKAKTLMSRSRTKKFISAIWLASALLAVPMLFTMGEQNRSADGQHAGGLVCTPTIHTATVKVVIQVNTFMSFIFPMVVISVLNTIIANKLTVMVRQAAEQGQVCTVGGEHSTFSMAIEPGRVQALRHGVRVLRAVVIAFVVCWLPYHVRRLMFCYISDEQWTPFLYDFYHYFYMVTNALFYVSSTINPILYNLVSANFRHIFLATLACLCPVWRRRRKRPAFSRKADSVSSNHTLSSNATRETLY
# [8] = molecular target: 5-hydroxytryptamine receptor 7 (Homo sapiens) (UniProt P34969); assay: Inhibition of human 5-HT7 receptor at 1 uM relative to control
# Sequence of 5-hydroxytryptamine receptor 7 (Homo sapiens) (P34969 whole entry): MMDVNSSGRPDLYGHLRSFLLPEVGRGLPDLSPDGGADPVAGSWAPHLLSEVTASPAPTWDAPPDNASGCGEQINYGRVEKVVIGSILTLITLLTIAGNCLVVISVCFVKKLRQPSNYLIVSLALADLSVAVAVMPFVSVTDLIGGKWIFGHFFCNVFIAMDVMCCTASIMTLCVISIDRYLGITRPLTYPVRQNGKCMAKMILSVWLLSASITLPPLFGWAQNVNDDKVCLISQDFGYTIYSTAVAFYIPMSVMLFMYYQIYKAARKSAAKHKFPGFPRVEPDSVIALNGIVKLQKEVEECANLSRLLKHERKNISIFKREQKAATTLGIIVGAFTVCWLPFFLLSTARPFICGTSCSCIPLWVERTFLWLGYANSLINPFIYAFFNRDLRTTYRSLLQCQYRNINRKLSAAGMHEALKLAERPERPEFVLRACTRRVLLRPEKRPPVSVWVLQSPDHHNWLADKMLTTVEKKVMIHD
# [9] = molecular target: Galanin receptor type 2 (Homo sapiens) (UniProt O43603); assay: Inhibition of human GAL2 receptor at 1 uM relative to control
# [10] = molecular target: Endothelin-1 receptor (Homo sapiens) (UniProt P25101); assay: Inhibition of human ETA receptor at 1 uM relative to control
# [11] = molecular target: Adenosine receptor A3 (Homo sapiens) (UniProt P0DMS8); assay: Inhibition of human adenosine A3 receptor at 1 uM relative to control
# [12] = molecular target: Adrenergic receptor alpha-1 (Homo sapiens) (UniProt P35348+P25100+P35368); assay: Inhibition of human alpha1 receptor at 1 uM relative to control
# [13] = molecular target: Bifunctional epoxide hydrolase 2 (Rattus norvegicus, UniProt P80299)
# Sequence of Bifunctional epoxide hydrolase 2 (Rattus norvegicus, UniProt P80299) (P80299 whole entry): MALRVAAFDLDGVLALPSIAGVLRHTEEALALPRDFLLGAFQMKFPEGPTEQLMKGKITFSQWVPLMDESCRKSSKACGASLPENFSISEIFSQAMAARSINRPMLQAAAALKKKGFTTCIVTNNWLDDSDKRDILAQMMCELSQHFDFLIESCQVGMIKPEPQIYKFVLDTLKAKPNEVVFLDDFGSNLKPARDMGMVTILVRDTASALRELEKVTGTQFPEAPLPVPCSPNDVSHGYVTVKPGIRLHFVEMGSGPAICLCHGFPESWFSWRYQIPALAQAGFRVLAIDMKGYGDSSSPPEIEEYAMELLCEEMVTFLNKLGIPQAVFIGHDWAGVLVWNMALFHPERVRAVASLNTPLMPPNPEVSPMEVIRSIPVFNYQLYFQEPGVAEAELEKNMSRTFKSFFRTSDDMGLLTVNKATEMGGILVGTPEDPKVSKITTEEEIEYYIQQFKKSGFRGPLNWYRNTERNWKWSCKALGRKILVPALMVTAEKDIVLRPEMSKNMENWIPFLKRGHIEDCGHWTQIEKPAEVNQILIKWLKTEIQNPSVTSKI
# [14] = molecular target: Muscarinic acetylcholine receptor M4 (Homo sapiens) (UniProt P08173); assay: Inhibition of human M4 receptor at 1 uM relative to control
# Homo sapiens [15] = species on record: Homo sapiens; assay: Inhibition of human SKCa channel at 1 uM relative to control
# [16] = molecular target: Neuropeptide Y receptor type 2 (Homo sapiens) (UniProt P49146); assay: Inhibition of human Y2 receptor at 1 uM relative to control
# Sequence of Neuropeptide Y receptor type 2 (Homo sapiens) (P49146 whole entry): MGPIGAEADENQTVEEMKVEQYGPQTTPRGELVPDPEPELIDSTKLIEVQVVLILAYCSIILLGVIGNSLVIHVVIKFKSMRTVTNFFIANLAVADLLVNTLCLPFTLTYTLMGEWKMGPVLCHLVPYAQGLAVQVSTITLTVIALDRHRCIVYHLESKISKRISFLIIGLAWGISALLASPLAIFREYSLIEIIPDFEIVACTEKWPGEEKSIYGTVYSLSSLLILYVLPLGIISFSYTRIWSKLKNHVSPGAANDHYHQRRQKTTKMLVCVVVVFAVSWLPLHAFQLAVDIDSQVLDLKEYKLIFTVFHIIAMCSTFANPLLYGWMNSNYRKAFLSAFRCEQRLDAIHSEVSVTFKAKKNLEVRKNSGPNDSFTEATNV
# [17] = molecular target: T1, Bifunctional epoxide hydrolase 2 (Homo sapiens, UniProt P34913)
# T1 sequence (P34913 whole entry): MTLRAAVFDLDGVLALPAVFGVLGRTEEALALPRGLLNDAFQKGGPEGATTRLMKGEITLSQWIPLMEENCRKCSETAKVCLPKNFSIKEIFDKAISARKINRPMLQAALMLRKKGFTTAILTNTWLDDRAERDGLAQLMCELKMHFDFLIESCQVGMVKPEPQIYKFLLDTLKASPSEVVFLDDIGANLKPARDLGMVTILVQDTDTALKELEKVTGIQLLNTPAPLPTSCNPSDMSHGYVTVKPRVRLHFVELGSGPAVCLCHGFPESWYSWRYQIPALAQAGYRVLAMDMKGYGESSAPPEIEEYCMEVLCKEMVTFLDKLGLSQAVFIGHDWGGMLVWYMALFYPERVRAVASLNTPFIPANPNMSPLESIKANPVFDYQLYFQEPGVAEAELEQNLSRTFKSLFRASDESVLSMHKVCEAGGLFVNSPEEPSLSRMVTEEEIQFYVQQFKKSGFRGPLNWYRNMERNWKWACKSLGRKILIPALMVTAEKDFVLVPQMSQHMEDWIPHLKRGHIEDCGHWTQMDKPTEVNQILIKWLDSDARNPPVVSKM
# Description: Inhibition of human soluble epoxide hydrolase using PHOME as substrate assessed as formation of 6-methoxy-2-naphthaldehyde incubated for 10 mins prior to substrate addition measured with in 30 mins by fluorescence assay
# [18] = molecular target: Vasoactive intestinal polypeptide receptor 1 (Homo sapiens) (UniProt P32241); assay: Inhibition of human VPAC1 receptor at 1 uM relative to control
# Sequence of Vasoactive intestinal polypeptide receptor 1 (Homo sapiens) (P32241 whole entry): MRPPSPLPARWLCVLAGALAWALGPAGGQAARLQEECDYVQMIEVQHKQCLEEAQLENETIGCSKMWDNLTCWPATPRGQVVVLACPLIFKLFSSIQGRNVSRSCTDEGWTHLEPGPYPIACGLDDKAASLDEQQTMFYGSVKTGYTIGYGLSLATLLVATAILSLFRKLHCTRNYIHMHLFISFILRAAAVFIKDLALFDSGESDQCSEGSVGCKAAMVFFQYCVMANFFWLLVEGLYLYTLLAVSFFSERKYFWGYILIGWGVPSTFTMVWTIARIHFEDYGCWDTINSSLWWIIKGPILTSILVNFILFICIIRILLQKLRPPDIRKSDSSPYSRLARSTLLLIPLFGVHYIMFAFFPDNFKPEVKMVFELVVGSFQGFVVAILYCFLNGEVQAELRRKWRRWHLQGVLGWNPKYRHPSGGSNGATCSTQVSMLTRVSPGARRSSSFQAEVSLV
# [19] = molecular target: Neuromedin-K receptor (Homo sapiens) (UniProt P29371); assay: Inhibition of human NK3 receptor at 1 uM relative to control
# [20] = molecular target: Substance-K receptor (Homo sapiens) (UniProt P21452); assay: Inhibition of human NK2 receptor at 1 uM relative to control
# Sequence of Substance-K receptor (Homo sapiens) (P21452 whole entry): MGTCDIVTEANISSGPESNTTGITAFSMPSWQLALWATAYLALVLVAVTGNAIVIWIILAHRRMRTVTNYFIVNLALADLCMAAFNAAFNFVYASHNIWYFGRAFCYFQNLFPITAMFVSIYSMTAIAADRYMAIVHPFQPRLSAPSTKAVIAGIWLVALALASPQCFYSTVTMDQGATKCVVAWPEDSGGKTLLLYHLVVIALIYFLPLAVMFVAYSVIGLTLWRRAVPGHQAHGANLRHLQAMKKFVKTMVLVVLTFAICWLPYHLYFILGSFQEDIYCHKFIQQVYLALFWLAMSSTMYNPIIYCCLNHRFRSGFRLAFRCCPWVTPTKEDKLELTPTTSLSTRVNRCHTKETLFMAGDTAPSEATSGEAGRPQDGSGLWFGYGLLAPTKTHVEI
# [21] = molecular target: 5-hydroxytryptamine receptor 2A (Homo sapiens) (UniProt P28223); assay: Inhibition of human 5-HT2A receptor at 1 uM relative to control
# Sequence of 5-hydroxytryptamine receptor 2A (Homo sapiens) (P28223 whole entry): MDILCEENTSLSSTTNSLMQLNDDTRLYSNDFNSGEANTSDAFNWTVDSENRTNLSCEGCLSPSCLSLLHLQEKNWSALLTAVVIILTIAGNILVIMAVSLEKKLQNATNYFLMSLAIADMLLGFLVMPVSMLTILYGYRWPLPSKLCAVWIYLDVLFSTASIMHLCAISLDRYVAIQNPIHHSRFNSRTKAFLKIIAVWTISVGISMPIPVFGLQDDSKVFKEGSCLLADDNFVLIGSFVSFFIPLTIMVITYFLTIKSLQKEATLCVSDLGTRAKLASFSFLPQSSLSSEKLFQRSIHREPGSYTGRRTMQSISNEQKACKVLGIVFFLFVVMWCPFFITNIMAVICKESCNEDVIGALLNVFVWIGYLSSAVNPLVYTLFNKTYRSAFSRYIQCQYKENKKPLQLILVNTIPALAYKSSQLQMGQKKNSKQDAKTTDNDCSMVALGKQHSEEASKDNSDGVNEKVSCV
# [22] = molecular target: Type-1 angiotensin II receptor (Homo sapiens) (UniProt P30556); assay: Inhibition of human AT1 receptor at 1 uM relative to control
# [23] = molecular target: Vasopressin V1a receptor (Homo sapiens) (UniProt P37288); assay: Inhibition of human vasopressin V1a receptor at 1 uM relative to control
# Sequence of Vasopressin V1a receptor (Homo sapiens) (P37288 whole entry, looked up): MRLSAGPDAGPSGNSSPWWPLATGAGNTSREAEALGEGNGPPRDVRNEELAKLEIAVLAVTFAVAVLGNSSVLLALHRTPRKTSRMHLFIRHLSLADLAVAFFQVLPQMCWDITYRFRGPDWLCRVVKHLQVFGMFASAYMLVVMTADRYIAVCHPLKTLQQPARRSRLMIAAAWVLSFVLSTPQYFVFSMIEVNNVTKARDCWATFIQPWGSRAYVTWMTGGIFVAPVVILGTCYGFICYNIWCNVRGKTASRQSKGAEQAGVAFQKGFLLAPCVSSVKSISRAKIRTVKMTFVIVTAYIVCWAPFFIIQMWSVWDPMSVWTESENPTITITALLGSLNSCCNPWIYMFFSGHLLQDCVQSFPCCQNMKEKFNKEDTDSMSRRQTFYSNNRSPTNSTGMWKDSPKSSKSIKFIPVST
# [24] = molecular target: Sodium channel protein type 5 subunit alpha (Homo sapiens, UniProt Q14524); assay: Inhibition of NaV1.5 (unknown origin)
# [25] = molecular target: Kappa-type opioid receptor (Homo sapiens) (UniProt P41145); assay: Inhibition of human kappa opioid receptor at 1 uM relative to control
structure (smiles),measurement,setting,value
CNc1nc(C)nc(N2CCC(C(=O)NCc3ccc(Br)cc3OC(F)(F)F)CC2)n1,clearance,[1],12 mL/min/kg
same,Cmax,[2],223 nM
same,inhibition,Homo sapiens [3],< 50%
same,inhibition,[4],< 50%
same,inhibition,[5],< 50%
same,inhibition,[6],< 50%
same,inhibition,[7],< 50%
same,inhibition,[8],< 50%
same,inhibition,[9],< 50%
same,inhibition,[10],< 50%
same,inhibition,[11],< 50%
same,inhibition,[12],< 50%
same,IC50,[13],2 nM
same,inhibition,[14],< 50%
same,inhibition,Homo sapiens [15],< 50%
same,inhibition,[16],< 50%
same,IC50,[17],0.5 nM
same,inhibition,[18],< 50%
same,inhibition,[19],< 50%
same,inhibition,[20],< 50%
same,inhibition,[21],< 50%
same,inhibition,[22],< 50%
same,inhibition,[23],< 50%
same,IC50,[24],> 10000 nM
same,inhibition,[25],< 50%
